The values below come from EP2679243B1, “Co-precipitate of one or more stilbene polyphenols in lamellar anionic solids, it's applications and related preparation method” (Fioretti, Bernard, priority 2012, dated 2014).

The nature of data set [1]: Photostability under irradiation at 340 nm (absorption spectra). The class given is physicochemical. From the text: • Figure 1. Characterization of the product obtained from the co-precipitation process according to the invention described in example 1. […] Figure 1B. The thermogravimetric analysis defines weight percentage of resveratrol load in co-precipitate. […] Characterization of the product obtained from the co-precipitation process according to the invention described in example 2. Figure 2A. […] Figure 2B. The thermogravimetric analysis to calculate weight percentage of resveratrol in co-precipitate. […] Figure 2C. […] Samples are prepared in aqueous solution. […] Column Luna Phenomenex RP-18, eluents A)-H2O + TFA 0.1% e B- MeCN (Gradient: 5min: 5% B; 20 min: until 95% B; 5 min: up to 5% B, Temperature: 25°C, flow speed of eluent 1.0 mL/min, detector: DAD (190-400 nm)) • Figure 3. […] A) Absorption spectrum of crystalline resveratrol. […] The dissolution rate is measured to acid gastric buffer (pH 1.2, XII italian FU) in non-sink condition at a temperature of 37°C and while being agitated (agitation 60 rotation/minute).
Solution 1is prepared by dissolving 258.3 mg of AlCl3 * 6H2O and 508.3 mg of MgCl2 * 6H2O in 18 mL of deionized water. […] A hydro-alcoholic solution is obtained by mixing the first and second solution and keeping it in a dark environment, agitated and in nitrogen flow. To this solution, under nitrogen flow, it has to be added 10 ml of NaOH solution 1 M up to a pH between 10-11. […]

For data set [2] the following is noted: cited from earlier work.
The conditions of data set [3]: cited from earlier work. This is another data set of the same source.
The nature of data set [4]: Solubility in gastric fluid (indirect weighing and UV dosage). Conditions: gastric fluid (FU; fluid mimicking the gastric fluid), simulated gastric fluid, thermodynamic from solid, gastric fluid pH 1.2, FU. In kind it is physicochemical. As for the experimental part:
Solution 1is prepared by dissolving 258.3 mg of AlCl3 * 6H2O and 508.3 mg of MgCl2 * 6H2O in 18 mL of deionized water. […] A hydro-alcoholic solution is obtained by mixing the first and second solution and keeping it in a dark environment, agitated and in nitrogen flow. To this solution, under nitrogen flow, it has to be added 10 ml of NaOH solution 1 M up to a pH between 10-11. Solid precipitated is left to be digested for 15 minutes and then it is separated through centrifugation. The solid recovered, has to be washed 2 times using 30 ml of deionized water and finally using 20 ml of ethanol. Finally the solid recovered is dryed out at 50 °C. […] Width of signals is due to low crystallinity of hydrotalcitic matrix that can be ascribed to an amorphous phase. […] The presence of resveratrol is confirmed by DTA signal (black trace) in which it is possible to observe a sequence of exhotermic processes due to resveratrol degradation. […] Little changes are observed after a 120 minute irradiation at 340 nm (Figure 3C. black trace: not irradiated; red trace: irradiated). […] Dissolution tests in fluids mimicking the gastric fluid (pH: 1-2, FU) at 37 °C, stirred and characterized by a blade rotation speed equal to 60 rotation/min in not sink conditions.

The conditions of data set [5]: compared to resveratrol; cited from earlier work.

Converted amounts (≈) assume the structure as drawn.

What is called pKa is the negative logarithm of the acid dissociation constant. By solubility is commonly meant the dissolved amount per volume that the medium holds. High values mean much dissolved substance, low ones little dissolved substance. Turning to `Oc1ccc(/C=C/c2cc(O)cc(O)c2)cc1` [resveratrol, trans-resveratrol], the photostability entry in data set [1] (aqueous solution, 30 minute irradiation at 340 nm) is “photo-instability”; in data set [1] (solid, 60 minute irradiation at 340 nm) it was “photo-degraded”. Besides, the pKa in data set [2] is listed as around 10. Further, the solubility in water entry in data set [3] is “about 30 mg/l”. In addition, the solubility in data set [4] was 44 µg/mL (≈ 193 µM).

In the case of resveratrol-L-arginine salt, the maximum plasma peak entry in data set [5] is “increased”.
